Read-outs that look alike come from different tables or passages of the source.
What was measured:
Type in all cases: in vivo
Diabrotica balteata = assay: Example B1: Diabrotica balteata (corn root worm), sprayed maize sprouts; settings: 96 h, read-out: effect in at least one of the two categories (mortality or growth inhibition)
Procedure: Example B1: Diabrotica balteata (Corn Root Worm)
Maize sprouts placed onto an agar layer in 24-well microtiter plates were treated with aqueous test solutions prepared from 10′000 ppm DMSO stock solutions by spraying. After drying, the plates were infested with L2 larvae (6 to 10 per well). The samples were assessed for mortality and growth inhibition in comparison to untreated samples 4 days after infestation.

Myzus persicae [1] = assay: Example B3: Myzus persicae (green peach aphid), feeding/contact activity; settings: 144 h
Procedure: Example B3: Myzus persicae (Green Peach Aphid):Feeding/Contact Activity
(§1) Sunflower leaf discs were placed onto agar in a 24-well microtiter plate and sprayed with aqueous test solutions prepared from 10′000 ppm DMSO stock solutions. After drying, the leaf discs were infested with an aphid population of mixed ages. The samples were assessed for mortality 6 days after infestation.

Spodoptera littoralis [2] = assay: whole plant or invertebrate; settings: in Gossypium barbadense, 144 h, read-out: effect in at least one of the three categories (mortality, anti-feeding, or growth inhibition)
Excerpt: (§2) Example B6: Spodoptera littoralis (Egyptian Cotton Leaf Worm)
Test compounds were applied by pipette from 10′000 ppm DMSO stock solutions into 24-well plates and mixed with agar. Lettuce seeds were placed onto the agar and the multi well plate was closed by another plate which contained also agar. After 7 days the compound was absorbed by the roots and the lettuce grew into the lid plate. The lettuce leaves were then cut off into the lid plate. Spodoptera eggs were pipetted through a plastic stencil onto a humid gel blotting paper and the lid plate was closed with it. The samples were assessed for mortality, anti-feedant effect and growth inhibition in comparison to untreated samples 6 days after infestation.

Spodoptera littoralis [3] = assay: whole plant or invertebrate; settings: foliar, 72 h, read-out: control (mortality, anti-feeding effect, or growth inhibition)
Procedure: as §2
Cotton leaf discs were placed onto agar in 24-well microtiter plates and sprayed with aqueous test solutions prepared from 10′000 ppm DMSO stock solutions. After drying the leaf discs were infested with five L1 larvae. The samples were assessed for mortality, anti-feeding effect, and growth inhibition in comparison to untreated samples 3 days after infestation. Control of Spodoptera littoralis by a test sample is given when at least one of the categories mortality, anti-feedant effect, and growth inhibition is higher than the untreated sample.

Euschistus heros = assay: Example B2: Euschistus heros (neotropical brown stink bug), sprayed soybean leaves; settings: 120 h, read-out: effect in at least one of the two categories (mortality or growth inhibition)
Procedure: Example B2: Euschistus heros(Neotropical Brown Stink Bug)
Soybean leaves on agar in 24-well microtiter plates were sprayed with aqueous test solutions prepared from 10′000 ppm DMSO stock solutions. After drying the leaves were infested with N2 nymphs. The samples were assessed for mortality and growth inhibition in comparison to untreated samples 5 days after infestation.

Plutella xylostella = assay: Example B5: Plutella xylostella (diamond back moth), artificial diet; settings: 120 h, read-out: effect in at least one of the two categories (mortality or growth inhibition)
Procedure: Example B5: Plutella xylostella (Diamond Back Moth)
24-well microtiter plates with artificial diet were treated with aqueous test solutions prepared from 10′000 ppm DMSO stock solutions by pipetting. After drying, the plates were infested with L2 larvae (10 to 15 per well). The samples were assessed for mortality and growth inhibition in comparison to untreated samples 5 days after infestation.

Thrips tabaci = assay: Example B8: Thrips tabaci (onion thrips), feeding/contact activity; settings: 144 h, application rate of 200 ppm, population of mixed ages, 6 days after infestation
Procedure: Example B8: Thrips tabaci (Onion Thrips) Feeding/Contact Activity
as §1, with “on” for “onto”, “in” for “in a”, “plates” for “plate”, “drying” for “drying,”, “a thrips” for “an aphid”

Myzus persicae [4] = assay: Example B4: Myzus persicae (green peach aphid), systemic activity; settings: 144 h, test rate of 24 ppm, roots of pea seedlings in test solution, 6 days
Procedure: Example B4: Myzus persicae (Green Peach Aphid). Systemic Activity
Roots of pea seedlings infested with an aphid population of mixed ages were placed directly into aqueous test solutions prepared from 10′000 DMSO stock solutions. The samples were assessed for mortality 6 days after placing seedlings into test solutions.

[5] = system: Frankliniella occidentalis; assay: Example B7: Frankliniella occidentalis (western flower thrips), feeding/contact activity; settings: 168 h, application rate of 200 ppm, population of mixed ages, 7 days after infestation
Procedure: Example B7: Frankliniella occidentalis (Western Flower Thrips):Feeding/Contact Activity
Sunflower leaf discs were placed on agar in 24-well microtiter plates and sprayed with aqueous test solutions prepared from […] stock solutions. After drying the leaf discs were infested with a Frankliniella population of mixed ages. The samples were assessed for mortality 7 days after infestation.

CCS(=O)(=O)c1cc2ccccc2nc1-c1cn2cnc(C(F)(F)F)cc2n1 [Compound P1, 3-ethylsulfonyl-2-[7-(trifluoromethyl)imidazo[1,2-c]pyrimidin-2-yl]quinolone]
≥ 80%: percent control (mortality or growth inhibition) at 200 ppm (Diabrotica balteata) | mortality at 200 ppm (Myzus persicae [1]) | percent control (mortality, anti-feedant effect or growth inhibition) at 12.5 ppm (Spodoptera littoralis [2]) | percent control (mortality, anti-feedant effect or growth inhibition) at 200 ppm (Spodoptera littoralis [3]) | percent control (mortality or growth inhibition) at 200 ppm (Euschistus heros) | percent control (mortality or growth inhibition) at 200 ppm (Plutella xylostella)

CCS(=O)(=O)c1cc2c(cc1-c1cn3cnc(C(F)(F)F)cc3n1)nc(C(F)(F)F)n2C [Compound P2, 2-[6-ethylsulfonyl-1-methyl-2-(trifluoromethyl)benzimidazol-5-yl]-7-(trifluoromethyl)imidazo[1,2-c]pyrimidine]
≥ 80%: mortality at 200 ppm (Thrips tabaci) | percent effect (mortality or growth inhibition) at 200 ppm (Diabrotica balteata; application rate of 200 ppm, L2 larvae, 4 days after infestation) | mortality at 200 ppm (Myzus persicae [1]; application rate of 200 ppm, aphid population of mixed ages, 6 days after infestation, read-out: mortality) | mortality at 24 ppm (Myzus persicae [4]) | mortality at 200 ppm [5] | percent effect (mortality or growth inhibition) at 200 ppm (Euschistus heros; application rate of 200 ppm, N2 nymphs, 5 days after infestation) | percent effect (mortality or growth inhibition) at 200 ppm (Plutella xylostella; application rate of 200 ppm, L2 larvae, 5 days after infestation)

— US10196398B2, “Pesticidally active tetracyclic derivatives with sulfur containing substituents” (Syngenta Participations AG, priority 2014, dated 2019)
